# Measurements: paper PMC8298375 (Naunyn-Schmiedeberg's Archives of Pharmacology, 2021)
# Tests used:
# [1] = test system: ICV colchicine-induced dementia rats; test: Passive avoidance test, ICV colchicine-induced dementia (chronic model); type: in vivo, Wistar rats; conditions: for Retention test, Latency time, 1st / Retention test, No. of crossings, 1st / Retention test, Time spent in darker chamber, 1st: 1st retention test, before colchicine administration; for Retention test, Latency time, 2nd / Retention test, No. of crossings, 2nd / Retention test, Time spent in darker chamber, 2nd: 2nd retention test, day 17; for Retention test, No. of crossings, 3rd / Retention test, Latency time, 3rd / Retention test, Time spent in darker chamber, 3rd: 3rd retention test, day 23; for Acquisition test, 2nd day: colchicine model
# Experimental: (§1) In the chronic model, the rats were trained for MWM and PAT tasks for the first 4 days followed by intracerebroventricular (i.c.v.) administration of colchicine on day 6. After establishing dementia on day 10 of the colchicine administration, the drug treatment was initiated from day 11 to 24. The effects of different drug treatments on dementia were assessed on days 14 and 21. On these particular days, the swim test was performed 15 min after the administration of different treatments and escape latencies; residence time and peripheral swim time were recorded (Nampoothiri [2017]). The retention trials for PAT on day 17 and 23 were performed on days 17 and 23, 15 min after the administration of the drug.
# On the 6th day, surgery was performed as described (Bokare et al. [2018]). Rat was anesthetized with sodium pentobarbital (45 mg/kg, i.p.) and positioned in stereotaxic apparatus. The head was positioned in a frame, and a midline sagittal incision was made in the scalp. Two holes were drilled through the skull at coordinates (0.8 mm posterior to bregma, 1.8 mm lateral to the sagittal suture, and 3.6 mm beneath the cortical surface) to place the injection cannula. Rats were intracerebroventricularly infused with either artificial cerebrospinal fluid (ACSF; in mM: 147 NaCl, 2.9 KCl, 1.6 MgCl2, 1.7 CaCl2, and 2.2 dextrose) or 15 µg of colchicine in 5 µL ACSF using a Hamilton microsyringe positioned in the injection cannula. To promote back diffusion, the microsyringe was left in place for 2 min following injection. The scalp was then closed with a suture. After surgery, all animals received gentamicin (5 mg/kg, i.p.) to prevent sepsis. Special care was taken during the postoperative period to provide food and water inside the cage of the rat. In sham-operated rats, surgery was identical except for injection of the solution.
# The passive avoidance apparatus consists of a larger illuminated compartment and a smaller dark compartment. Each consists of a square box, with a floor grid of 50 × 50 cm and wooden walls of 35-cm height in larger compartment. Larger box was illuminated by 15 W Philips CFL lamp. A smaller dark compartment of 15 × 15 cm with an electrified floor is connected to a constant current stimulator. An opening 6 × 6 cm in between the two compartments was closed using a transparent plexiglass sliding door. The test procedure was carried out in three phases, exploration, learning, and retention (Praveenkumar [2019]).
# First day, the animal was placed in the center of the illuminated larger compartment facing away from the entrance to the small darker compartment and allowed to explore the apparatus, i.e., both compartments for 3 min. Total time spent in the larger and smaller compartments and the number of crossings (from larger to smaller compartments and vice versa; a measure of exploratory behavior) were noted. On the second day, animal was placed in the illuminated larger compartment facing away from the entrance to the darker compartment. Once the animal entered the darker compartment, the entrance to the larger compartment was closed, and three strong electric foot shocks (50 Hz, 0.5 mA, 2 s) with 10-s intervals were applied. On the third day, rats were placed in the illuminated larger compartment and allowed to explore both the compartments for 3 min. The parameters assessed are latency time to enter into darker compartment, time spent in the darker and brighter compartments, and the number of crossings between the compartments.
# [2] = test system: ICV colchicine-induced dementia rats; test: Locomotor activity (photoactometer), colchicine-induced dementia; type: in vivo, Wistar rats; conditions: colchicine model, Mean ± SEM, photo beam counts for 5 min
# Experimental: as §1
# On the 6th day, surgery was performed as described (Bokare et al. [2018]). Rat was anesthetized with sodium pentobarbital (45 mg/kg, i.p.) and positioned in stereotaxic apparatus. The head was positioned in a frame, and a midline sagittal incision was made in the scalp. […]
# Locomotor activity was assessed in animals using a digital photoactometer (INCO, India) which contains a cage that is 30-cm long and 30-cm deep with a wire mesh at the bottom. […] Then, the ambulatory movements were recorded for 5 min and expressed in terms of total photo beam counts for 5 min per animal.
smiles,measurement,setting,value
"CCN(C)C(=O)Oc1cccc([C@H](C)N(C)C)c1 [INRSM, rivastigmine]","Retention test, Latency time, 1st",[1]; listed as COL + INRSM,122.3 ± 13.32 s
same,"Retention test, No. of crossings, 1st",[1]; listed as COL + INRSM,2.67±0.56
same,"Retention test, Time spent in darker chamber, 1st",[1]; listed as COL + INRSM,49.5 ± 12.13 s
same,"Retention test, Latency time, 2nd",[1]; listed as COL + INRSM,101.8 ± 10.46 s
same,"Retention test, No. of crossings, 2nd",[1]; listed as COL + INRSM,3.50±0.56
same,"Retention test, Time spent in darker chamber, 2nd",[1]; listed as COL + INRSM,58.67 ± 10.25 s
same,"Retention test, No. of crossings, 3rd",[1],3.17±0.48
same,"Retention test, Latency time, 3rd",[1]; listed as COL + INRSM,77.17 ± 11.18 s
same,"Retention test, Time spent in darker chamber, 3rd",[1]; listed as COL + INRSM,67.17 ± 12.43 s
same,"Acquisition test, 2nd day",[1]; listed as COL + INRSM,11.07 ± 2.195
same,Score on actophotometer,[2]; listed as COL + INRSM,265.66 ± 17.95
"CCN(C)C(=O)Oc1cccc([C@H](C)N(C)C)c1 [ORSM, rivastigmine]","Retention test, Latency time, 1st",[1]; listed as COL + ORSM,127.8 ± 21.13 s
same,"Retention test, No. of crossings, 1st",[1]; listed as COL + ORSM,1.83±0.54
same,"Retention test, Time spent in darker chamber, 1st",[1]; listed as COL + ORSM,38.5 ± 16.47 s
same,"Retention test, Latency time, 2nd",[1]; listed as COL + ORSM,90.55 ± 22.83 s
same,"Retention test, No. of crossings, 2nd",[1]; listed as COL + ORSM,3.00±0.63
same,"Retention test, Time spent in darker chamber, 2nd",[1]; listed as COL + ORSM,68 ± 23.51 s
same,"Retention test, No. of crossings, 3rd",[1],3.17±0.48
same,"Retention test, Latency time, 3rd",[1]; listed as COL + ORSM,48.83 ± 8.28 s
same,"Retention test, Time spent in darker chamber, 3rd",[1]; listed as COL + ORSM,81.33 ± 10.56 s
same,"Acquisition test, 2nd day",[1]; listed as COL + ORSM,8.91 ± 2.049
same,Score on actophotometer,[2]; listed as COL + ORSM,240.00 ± 19.54
